IC50 data for 23 compounds are collected here from patent US20250091989A1, “SMALL MOLECULE PROTEIN SYNTHESIS MODULATORS” (Interdict Bio, Inc., priority 2023, published 2025).

Common to all, as to assay type: biochemical
Common to all, as to settings: HeLa S3 lysate, sfGFP/mCherry ratio, 2 hrs at 30° C.

One assay deals with MYC. The assay can be described thus: In vitro transcription-translation (IVTT) reporter assay, MYC test sequence. In short, it runs like this: (§1)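 Coupled transcription-translation in HeLa S3 lysate with reporter plasmids encoding mCherry-P2A-3×FLAG-TEST-sfGFP behind an EMCV IRES. Compounds were half-log titrated (30 μM-0.1 μM in DMSO dilution plate) into master mix, then DNA was added. Reactions ran 2 hrs at 30° C, were PBS-quenched and read for fluorescence.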
In general terms: A reporter such as luciferase makes a cellular process visible.

The next assay concerns ALK. The assay can be described thus: In vitro transcription-translation (IVTT) reporter assay, ALK test sequence. The method in brief: as §1
Another assay concerns CCND1. The assay can be described thus: In vitro transcription-translation (IVTT) reporter assay, CCND1 test sequence. The source says: (§2) All reporter constructs have been cloned into the pT7CFE1-CHis plasmid (ThermoFisher #88860) using Gibson assembly procedures (NEB #E2611L). The parental pT7CFE1-CHis plasmid contains an EMCV IRES at the 5′UTR for translation initiation, a multiple-cloning site (MCS) for gene insertion, an optional C-terminal His-epitope tag, and polyA sequence in the 3′UTR to regulate mRNA stability. All reporters are designed to be inserted at the MCS to include a red fluorescent protein (mCherry), P2A self-cleaving peptide which releases the preceding mCherry protein product, and a fusion open reading frame containing a 3×FLAG epitope, a peptide sequence of interest (TEST), and green fluorescent protein (sfGFP).
(§3) Construct Plasmid Preparation: All plasmids are isolated from MACH1 cells (ThermoFisher) grown overnight in ampicillin-containing luria broth, and purified using ZymoPure Express Plasmid Midiprep Kit (Zymo Research). Constructs are sequenced verified and diluted to a working concentration of 110 ng/μL.
(§4) HeLa S3 Lysate Preparation: HeLa S3 cell pellets are acquired from Ipracell/Ipratech (Belgium) and shipped as 4 mL frozen cell pellets on dry ice for storage at −80° C. until use. The procedure for lysate preparation is as follows. Prepare 1× Lysis Buffer, cold and stored on ice:
(§5) Each preparation takes 8 cell pellets (4 ml packed volume each, approximately 1.0×10^9 cells per pellet). Thaw cell pellets from −80° C. on ice for 90 mins. Lay pellets horizontally on top of the ice and rotate every 30 mins to ensure even thawing. Once thawed, add 4 mL of cold lysis buffer to each pellet, and using a serological pipet, gently pipet up and down to break up clumps. Incubate resuspended cells in ice for an additional 30 mins (plunged into ice). During 30 min incubation, rinse and RNase-zap (Ambion) glass dounces (use loose pestle “A”), gently dry and place on ice until needed. Prepare RNase-free Eppendorf tubes for spinning and for batch storage. Add batch labels to 1.5-1.7 mL RNase-free microcentrifuge tubes (labeling scheme below). Each batch will have an extra 1.5-1.7 mL RNase-free microcentrifuge tube for 40 μL of lysate, label the top of this tube (labeling scheme below). After 30 min incubation, transfer all 8 mL of cell pellet to dounce. Cell lysis is complete after douncing 100 times. Aliquot cell lysis into 1.5-1.7 mL temporary-microcentrifuge tubes. Place tubes in centrifuge with “fins” out, and spin at 1,200 xg for 5 mins. After the first spin use a 1 mL pipet to resuspend each tube and repeat spin. This acts as an additional lysis step, is more vigorous and increases lysate yield. During second spin get liquid N2 and a fresh conical tube on ice.
(§6) After spin is complete, transfer supernatant (lysate) from microcentrifuge tubes into the 50 mL conical tube and keep on ice. Repeat steps 10-14 for all other cell pellets until completed. Once all cell lysate has been transferred to the 50 mL conical tube pipet to mix so the solution is homogenous. Transfer 1 mL of lysate into batch-labeled microcentrifuge tubes and flash freeze in liquid nitrogen. Be sure to pipet up and down to mix throughout transfer step. Place all tubes in the […] for long-term storage.
(§7) In vitro transcription-translation assay setup: Each assay includes a master mix containing lysate and shared components, a 96-well plate containing compound titrations for testing, a 96-well DNA plate with reporter constructs to be tested, 96-well skirted PCR plates, and 96-well flat-bottom, black, fluorescent assay plates. […]

The test system of another assay is KRAS G12D. The assay can be described thus: In vitro transcription-translation (IVTT) reporter assay, KRAS G12D test sequence. In short, it runs like this: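 Compounds, half-log titrated 30 μM-0.1 μM in DMSO, were mixed with HeLa S3 lysate master mix and plasmid DNA, then incubated 2 h at 30 °C before PBS quench. Each construct fuses the CCND1, KRAS G12D, MCL-1 or BCL-2 sequence between 3×FLAG and sfGFP, downstream of mCherry-P2A.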

For the next assay, the system named is MCL-1. The assay can be described thus: In vitro transcription-translation (IVTT) reporter assay, MCL-1 test sequence.
Text: as §2, §3, §4, §5, §6, §7

A further assay deals with BCL-2. The assay can be described thus: In vitro transcription-translation (IVTT) reporter assay, BCL-2 test sequence.
Text: as §2, §3, §4, §5, §6, §7

As a reminder, the IC50 is the point on the concentration scale where inhibition reaches its midpoint. `COc1ccc(C[C@H]2NC[C@H](O)[C@H]2OC(=O)CCCCCO)cc1` [V186777]: the IC50 in the assay with MYC, in the assay with ALK, with CCND1 and in the assay with KRAS G12D was under 10 µM throughout.

Regarding `COc1ccc(C[C@H]2NC[C@H](O)[C@H]2OC(=O)CC2NC(=O)CNC2=O)cc1` (stereo partly drawn) [V186862, (2R,3S,4S)-4-hydroxy-2-[(4-methoxyphenyl)methyl]pyrrolidin-3-yl 2-(3,6-dioxopiperazin-2-yl)acetate], the IC50 was under 10 µM in the assay on MYC, under 10 µM in the assay on ALK, over 30 µM in the assay with CCND1 and over 30 µM in the assay on KRAS G12D.

As for `COc1ccc(C[C@H]2NC[C@H](O)[C@H]2OC(=O)CC(C)C)cc1` [V187035, (2R,3S,4S)-4-hydroxy-2-[(4-methoxyphenyl)methyl]pyrrolidin-3-yl 3-methylbutanoate], the concentration for half-maximal inhibition (IC50) in the assay with MYC, in the assay on ALK, in the assay on CCND1, in the assay on KRAS G12D and in the assay on MCL-1 was under 10 µM each time.

In the case of `COc1ccc(C[C@H]2NC[C@H](O)[C@H]2OC(=O)Cc2ccc(Cl)cc2)cc1` [V187055, (2R,3S,4S)-4-hydroxy-2-[(4-methoxyphenyl)methyl]pyrrolidin-3-yl 2-(4-chlorophenyl)acetate; trifluoroacetic acid], the concentration for half-maximal inhibition (IC50) in the assay with MYC, in the assay with CCND1, in the assay with KRAS G12D and in the assay on MCL-1 was under 10 µM throughout.

On to `COc1ccc(C[C@H]2NC[C@H](O)[C@H]2OC(=O)Cc2cc(Br)cs2)cc1` [V187070, (2R,3S,4S)-4-hydroxy-2-[(4-methoxyphenyl)methyl]pyrrolidin-3-yl 2-(4-bromothiophen-2-yl)acetate], for which the IC50 in the assay with MYC, with CCND1, with KRAS G12D and in the assay on MCL-1 was under 10 µM throughout.

As to `COc1ccc(C[C@H]2NC[C@H](O)[C@H]2OC(=O)Cc2ccccn2)cc1` [V187082, (2R,3S,4S)-4-hydroxy-2-[(4-methoxyphenyl)methyl]pyrrolidin-3-yl 2-(pyridin-2-yl)acetate], the concentration for half-maximal inhibition (IC50) in the assay on MYC, in the assay with ALK, in the assay on CCND1 and in the assay with KRAS G12D was under 10 µM each time.

For `COc1ccc(C[C@H]2NC[C@H](O)[C@H]2OC(=O)Cc2cnccn2)cc1` [V187088, (2R,3S,4S)-4-hydroxy-2-[(4-methoxyphenyl)methyl]pyrrolidin-3-yl 2-(pyrazin-2-yl)acetate], the IC50 with MYC, in the assay on ALK, with CCND1 and with KRAS G12D was under 10 µM throughout.

On to `COc1ccc(C[C@H]2NC[C@H](O)[C@H]2OC(=O)CCNC(C)C)cc1` [V187155, (2R,3S,4S)-4-hydroxy-2-[(4-methoxyphenyl)methyl]pyrrolidin-3-yl 3-(isopropylamino)propanoate; trifluoroacetic acid], for which the IC50 in the assay on MYC was over 30 µM; in the assay on ALK, 10 to 20 µM; in the assay with CCND1, under 10 µM; in the assay on KRAS G12D it was over 30 µM.

In the case of `COc1ccc(C[C@H]2NC[C@H](O)[C@H]2OC(=O)CC(F)(F)F)cc1` [V187162, (2R,3S,4S)-4-hydroxy-2-[(4-methoxyphenyl)methyl]pyrrolidin-3-yl 3,3,3-trifluoropropanoate; trifluoroacetic acid], the IC50 in the assay on MYC, with ALK, with CCND1 and in the assay with KRAS G12D was under 10 µM in each case.

In the case of `COc1ccc(C[C@H]2NC[C@H](O)[C@H]2OC(=O)CNC2CC(F)(F)C2)cc1` [V187172], the IC50 in the assay with MYC, in the assay with ALK, in the assay on CCND1 and in the assay on KRAS G12D was under 10 µM throughout.

Regarding `COc1ccc(C[C@H]2NC[C@H](O)[C@H]2OC(=O)CCc2cocn2)cc1` [V187176, (2R,3S,4S)-4-hydroxy-2-[(4-methoxyphenyl)methyl]pyrrolidin-3-yl 3-(1,3-oxazol-4-yl)propanoate; trifluoroacetic acid], the IC50 with MYC, in the assay on CCND1 and in the assay with KRAS G12D was under 10 µM each time.

On to `COc1ccc(C[C@H]2NC[C@H](O)[C@H]2OC(C)=O)cc1Br` [V187263], for which the half-maximal inhibitory concentration (IC50) in the assay on MYC is over 30 µM; with BCL-2 it was 20 to 30 µM; in the assay on CCND1, 20 to 30 µM; in the assay on MCL-1, 20 to 30 µM.

As to `COc1ccc(C[C@H]2NC[C@H](O)[C@H]2OC(C)=O)cc1F` [V187569], the IC50 in the assay with MYC, with CCND1 and in the assay with MCL-1 was under 10 µM each time.

For `CC(=O)O[C@@H]1[C@@H](O)CN[C@@H]1Cc1ccc(-c2cn(C)nn2)cc1` [V187748], the IC50 with MYC, in the assay on BCL-2, with CCND1 and with MCL-1 was under 10 µM throughout.

On to `CC(=O)O[C@@H]1[C@@H](O)CN[C@@H]1Cc1ccc(-c2cn(Cc3ccccc3)nn2)cc1` [V187750], for which the IC50 with MYC, in the assay on ALK, in the assay with CCND1 and in the assay with KRAS G12D was under 10 µM throughout.

Consider `CC(=O)O[C@@H]1[C@@H](O)CN[C@@H]1Cc1ccc(-c2cn(-c3cccnc3)nn2)cc1` [V187751], for which the half-maximal inhibitory concentration (IC50) in the assay on MYC, in the assay on BCL-2, in the assay with CCND1 and in the assay with MCL-1 was under 10 µM each time.

Regarding `CC(=O)O[C@@H]1[C@@H](O)CN[C@@H]1Cc1ccc(-c2cn(C3CCOCC3)nn2)cc1` [V187838], the IC50 in the assay with MYC, in the assay on BCL-2, with CCND1 and in the assay on MCL-1 was under 10 µM each time.

With `CC(=O)O[C@@H]1[C@@H](O)CN[C@@H]1Cc1ccc(-c2cn(-c3ccc(Cl)cc3)nn2)cc1` [V187839], the concentration for half-maximal inhibition (IC50) with MYC, with BCL-2, in the assay with CCND1 and with MCL-1 was under 10 µM throughout.

In the case of `CC(=O)O[C@@H]1[C@@H](O)CN[C@@H]1Cc1ccc(-c2cn(-c3ccc(C(F)(F)F)cc3)nn2)cc1` [V187840], the 50% inhibitory concentration (IC50) with MYC, in the assay on BCL-2, in the assay on CCND1 and in the assay with MCL-1 was under 10 µM each time.

With `COc1ccc(C[C@H]2NC[C@H](O)[C@H]2OC(C)=O)cc1C#N` [V188045], the concentration for half-maximal inhibition (IC50) in the assay with MYC, in the assay on CCND1 and in the assay with MCL-1 was over 30 µM throughout.

Consider `COc1ccc(C[C@H]2NC[C@H](O)[C@H]2OC(C)=O)cc1Cl` [V188046], for which the IC50 in the assay on MYC, in the assay on CCND1 and in the assay with MCL-1 was under 10 µM each time.

`CC(=O)O[C@@H]1[C@@H](O)CN[C@@H]1Cc1ccc([N+](=O)[O-])cc1` [V188168, (2R,3S,4S)-4-hydroxy-2-[(4-nitrophenyl)methyl]pyrrolidin-3-yl acetate]: the IC50 in the assay on MYC, in the assay with CCND1 and in the assay on MCL-1 was under 10 µM each time.

Take `COc1ccc(C[C@H]2NC[C@](C)(O)[C@H]2OC(C)=O)cc1` [V188182, (2R,3S,4S)-4-hydroxy-2-[(4-methoxyphenyl)methyl]-4-methylpyrrolidin-3-yl acetate]: the 50% inhibitory concentration (IC50) in the assay on MYC and in the assay with MCL-1 was over 30 µM in each case.
